24 molecules from ChEMBL document CHEMBL1201862, “PubChem BioAssay data set” (2004) can be followed below.

The target of data set [1] is T1, Heat shock factor protein 1 (Mus musculus, UniProt P38532).
T1 sequence (P38532 whole entry): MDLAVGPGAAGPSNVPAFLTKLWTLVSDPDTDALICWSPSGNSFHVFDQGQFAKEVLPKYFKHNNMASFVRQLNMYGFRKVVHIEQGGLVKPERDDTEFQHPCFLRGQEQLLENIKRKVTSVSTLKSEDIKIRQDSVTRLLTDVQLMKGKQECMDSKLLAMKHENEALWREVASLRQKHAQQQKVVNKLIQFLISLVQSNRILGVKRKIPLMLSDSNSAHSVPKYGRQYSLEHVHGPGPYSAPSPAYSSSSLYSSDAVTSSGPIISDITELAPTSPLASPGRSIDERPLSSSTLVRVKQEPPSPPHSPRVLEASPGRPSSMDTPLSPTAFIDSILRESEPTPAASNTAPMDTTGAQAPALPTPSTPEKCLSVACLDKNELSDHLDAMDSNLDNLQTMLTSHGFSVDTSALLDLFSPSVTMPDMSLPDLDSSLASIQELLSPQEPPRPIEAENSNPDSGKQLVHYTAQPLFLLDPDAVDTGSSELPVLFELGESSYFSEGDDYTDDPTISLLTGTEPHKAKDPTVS
In words: enhancement of HSF1-driven luciferase signal – cell-based, NIH3T3, luminescence, dose retest, confirmation (AID 435004).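 Further: stress induced by proteasome inhibitor MG132 added 30 min after compound; luciferase reporter driven by HSF1 response element in NIH3T3 cells; actives raise luminescence as potentiators of the MG132 stress response.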 It is filed as functional.

The target in data set [2] is T2, Protein RecA (Mycobacterium tuberculosis, UniProt P9WHJ3).
T2 sequence (P9WHJ3 whole entry): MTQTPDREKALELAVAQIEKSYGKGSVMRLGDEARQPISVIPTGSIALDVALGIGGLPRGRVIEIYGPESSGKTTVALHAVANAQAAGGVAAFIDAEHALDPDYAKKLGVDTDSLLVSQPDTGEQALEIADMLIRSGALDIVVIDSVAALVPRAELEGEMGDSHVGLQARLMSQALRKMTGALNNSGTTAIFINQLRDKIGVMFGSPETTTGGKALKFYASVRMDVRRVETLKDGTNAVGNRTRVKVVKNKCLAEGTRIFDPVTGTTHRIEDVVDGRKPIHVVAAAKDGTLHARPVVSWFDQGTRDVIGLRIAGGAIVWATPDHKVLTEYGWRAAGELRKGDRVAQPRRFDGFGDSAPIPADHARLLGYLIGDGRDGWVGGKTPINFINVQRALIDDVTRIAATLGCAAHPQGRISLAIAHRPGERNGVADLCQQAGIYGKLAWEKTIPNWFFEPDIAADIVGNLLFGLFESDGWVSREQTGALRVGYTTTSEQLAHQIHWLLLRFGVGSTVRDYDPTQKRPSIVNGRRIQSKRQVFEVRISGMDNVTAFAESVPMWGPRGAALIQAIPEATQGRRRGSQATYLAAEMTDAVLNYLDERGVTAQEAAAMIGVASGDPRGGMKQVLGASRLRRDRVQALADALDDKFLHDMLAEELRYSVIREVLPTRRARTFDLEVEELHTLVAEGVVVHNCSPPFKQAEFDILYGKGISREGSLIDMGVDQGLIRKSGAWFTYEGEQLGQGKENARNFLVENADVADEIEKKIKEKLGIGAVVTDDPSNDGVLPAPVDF
The data set is described as follows: Fluorescence Cell-Free Homogeneous Dose Retest to Identify Inhibitors of RecA-Intein Splicing Activity. [Related pubchem assays (depositor defined):AID2097, AID2223, AID489010, AID492950]. It counts as functional.

Data set [3] addresses Luciferin 4-monooxygenase (Photinus pyralis, UniProt P08659). In words: inhibition of purified Photinus pyralis luciferase – biochemical, luminescence, dose response (AID 1891).
Data set [4] concerns the target T3, Replicative DNA helicase DnaB (Mycobacterium tuberculosis, UniProt P9WMR3).
T3 sequence (P9WMR3 whole entry): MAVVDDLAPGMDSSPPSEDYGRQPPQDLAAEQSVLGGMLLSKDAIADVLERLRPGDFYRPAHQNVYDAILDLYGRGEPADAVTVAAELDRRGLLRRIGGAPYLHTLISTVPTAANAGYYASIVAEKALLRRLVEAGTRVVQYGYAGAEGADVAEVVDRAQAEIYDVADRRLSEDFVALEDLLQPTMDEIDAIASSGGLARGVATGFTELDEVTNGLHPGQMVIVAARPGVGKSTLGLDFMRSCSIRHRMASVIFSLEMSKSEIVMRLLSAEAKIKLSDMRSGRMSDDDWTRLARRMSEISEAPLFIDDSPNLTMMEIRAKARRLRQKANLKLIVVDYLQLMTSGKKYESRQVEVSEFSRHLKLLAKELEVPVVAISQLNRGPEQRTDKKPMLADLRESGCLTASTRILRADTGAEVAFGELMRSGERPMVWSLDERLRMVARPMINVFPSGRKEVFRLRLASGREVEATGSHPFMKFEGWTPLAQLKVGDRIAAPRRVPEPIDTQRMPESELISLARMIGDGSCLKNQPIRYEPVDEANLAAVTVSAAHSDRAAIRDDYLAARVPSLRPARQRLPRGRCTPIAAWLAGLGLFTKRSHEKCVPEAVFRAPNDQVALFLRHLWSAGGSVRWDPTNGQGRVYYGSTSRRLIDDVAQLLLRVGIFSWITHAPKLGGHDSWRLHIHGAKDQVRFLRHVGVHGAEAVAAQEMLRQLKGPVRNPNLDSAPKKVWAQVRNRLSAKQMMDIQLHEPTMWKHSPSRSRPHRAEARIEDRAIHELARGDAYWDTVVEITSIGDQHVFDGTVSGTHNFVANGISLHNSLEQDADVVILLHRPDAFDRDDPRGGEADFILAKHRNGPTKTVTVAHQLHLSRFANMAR
In words: DnaB intein splicing inhibitors, dose response, biochemical, cell-free fluorescence (AID 449749). It counts as functional.

Data set [5] is described as follows: Luminescence Cell-Based Dose Confirmation HTS to Identify Inhibitors of Platelet Dense Granule Release. [Related pubchem assays: 1663 (Primary HTS), 1678 (Summary of Project)]. It counts as functional.
For data set [6], the target named is T4, Coagulation factor XII (Homo sapiens, UniProt P00748).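 Further: activated factor XIIa alpha cleaving a fluorogenic AMC peptide substrate; inhibitor potency from loss of enzyme activity.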
T4 sequence (P00748 whole entry): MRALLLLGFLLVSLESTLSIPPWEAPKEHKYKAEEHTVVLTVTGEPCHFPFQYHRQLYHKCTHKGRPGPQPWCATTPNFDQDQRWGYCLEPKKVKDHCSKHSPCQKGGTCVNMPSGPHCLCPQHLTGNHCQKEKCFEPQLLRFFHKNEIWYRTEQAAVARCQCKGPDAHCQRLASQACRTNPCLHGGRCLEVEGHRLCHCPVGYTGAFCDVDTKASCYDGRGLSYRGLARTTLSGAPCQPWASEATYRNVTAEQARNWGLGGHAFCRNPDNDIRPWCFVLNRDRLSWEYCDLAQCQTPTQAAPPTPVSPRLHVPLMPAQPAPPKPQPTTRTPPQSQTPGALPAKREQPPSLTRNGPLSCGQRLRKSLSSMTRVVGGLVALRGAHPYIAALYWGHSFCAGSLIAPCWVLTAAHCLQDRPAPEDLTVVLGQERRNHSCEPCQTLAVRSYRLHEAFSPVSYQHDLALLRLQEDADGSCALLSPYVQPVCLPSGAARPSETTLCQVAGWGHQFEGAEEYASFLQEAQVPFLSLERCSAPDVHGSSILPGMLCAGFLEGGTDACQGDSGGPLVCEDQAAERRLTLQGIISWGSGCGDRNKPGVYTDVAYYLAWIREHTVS
It counts as functional.

Data set [7] concerns the target T5, Cytochrome P450 1A2 (Homo sapiens, UniProt P05177).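 Further: PubChem cytochrome P450 panel assay, CYP1A2 panel member.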
T5 sequence (P05177 whole entry): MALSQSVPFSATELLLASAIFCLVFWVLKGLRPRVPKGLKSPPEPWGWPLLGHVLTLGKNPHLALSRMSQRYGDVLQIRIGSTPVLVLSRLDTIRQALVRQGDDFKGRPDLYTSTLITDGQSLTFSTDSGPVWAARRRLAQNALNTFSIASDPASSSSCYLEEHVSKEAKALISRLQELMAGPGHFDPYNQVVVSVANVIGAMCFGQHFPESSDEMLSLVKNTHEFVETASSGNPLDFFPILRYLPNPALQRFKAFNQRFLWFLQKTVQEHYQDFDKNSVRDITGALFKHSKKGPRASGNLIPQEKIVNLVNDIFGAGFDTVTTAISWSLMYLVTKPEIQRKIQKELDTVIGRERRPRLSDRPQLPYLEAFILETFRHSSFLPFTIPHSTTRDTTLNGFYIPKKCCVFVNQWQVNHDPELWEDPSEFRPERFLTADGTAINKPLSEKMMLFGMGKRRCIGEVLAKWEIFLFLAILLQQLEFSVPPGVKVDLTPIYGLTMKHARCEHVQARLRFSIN

Data set [8] deals with Cytochrome P450 2C9 (Homo sapiens, UniProt P11712).
Data set [9] addresses Cytochrome P450 2D6 (Homo sapiens, UniProt P10635).
In data set [10] the target is Cytochrome P450 2C19 (Homo sapiens, UniProt P33261). In words: Cytochrome panel assay with activity outcomes. Panel member name: p450-cyp2c19 Compounds with AC50 equal or less than 10 uM are considered active. It is filed as functional. The conditions noted are these: read-out: AC50.
For data set [11], the target named is Cytochrome P450 3A4 (Homo sapiens, UniProt P08684).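 Further: CYP3A4 tested as one member of a cytochrome P450 panel screen.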
In data set [12] the target is Heat shock protein HSP 90-alpha (Homo sapiens, UniProt P07900). It counts as functional, organism-based.

SMILES strings stand for the structures. Activity calls are given as the source filed them.

Chain of Cytochrome P450 2C9 (P11712 whole entry): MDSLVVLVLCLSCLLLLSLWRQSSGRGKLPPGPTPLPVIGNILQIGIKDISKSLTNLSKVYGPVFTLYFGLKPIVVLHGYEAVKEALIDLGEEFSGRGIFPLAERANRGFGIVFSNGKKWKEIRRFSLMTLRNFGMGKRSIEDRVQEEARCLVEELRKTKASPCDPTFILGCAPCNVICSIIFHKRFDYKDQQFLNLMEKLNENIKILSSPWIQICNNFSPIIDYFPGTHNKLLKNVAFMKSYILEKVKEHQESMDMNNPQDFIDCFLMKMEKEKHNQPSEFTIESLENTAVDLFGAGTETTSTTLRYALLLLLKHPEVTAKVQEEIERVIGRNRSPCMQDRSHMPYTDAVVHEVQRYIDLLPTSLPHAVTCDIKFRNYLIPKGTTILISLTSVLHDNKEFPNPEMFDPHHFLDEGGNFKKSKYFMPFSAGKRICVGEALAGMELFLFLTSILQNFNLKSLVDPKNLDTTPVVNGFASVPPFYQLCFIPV
Chain of Cytochrome P450 2C19 (P33261 whole entry): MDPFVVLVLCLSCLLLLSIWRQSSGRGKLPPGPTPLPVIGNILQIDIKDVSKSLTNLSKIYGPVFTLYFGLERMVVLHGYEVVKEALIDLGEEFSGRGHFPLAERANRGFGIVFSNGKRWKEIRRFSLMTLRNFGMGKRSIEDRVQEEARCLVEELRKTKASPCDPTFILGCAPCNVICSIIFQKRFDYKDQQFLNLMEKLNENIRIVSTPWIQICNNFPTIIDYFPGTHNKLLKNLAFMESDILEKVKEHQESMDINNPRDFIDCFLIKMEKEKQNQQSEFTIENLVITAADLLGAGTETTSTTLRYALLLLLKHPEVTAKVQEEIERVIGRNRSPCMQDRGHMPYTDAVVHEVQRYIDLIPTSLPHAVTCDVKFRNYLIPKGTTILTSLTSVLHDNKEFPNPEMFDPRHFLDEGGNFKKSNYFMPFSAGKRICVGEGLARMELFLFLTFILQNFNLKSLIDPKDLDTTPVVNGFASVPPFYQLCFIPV
Chain of Cytochrome P450 2D6 (P10635 whole entry): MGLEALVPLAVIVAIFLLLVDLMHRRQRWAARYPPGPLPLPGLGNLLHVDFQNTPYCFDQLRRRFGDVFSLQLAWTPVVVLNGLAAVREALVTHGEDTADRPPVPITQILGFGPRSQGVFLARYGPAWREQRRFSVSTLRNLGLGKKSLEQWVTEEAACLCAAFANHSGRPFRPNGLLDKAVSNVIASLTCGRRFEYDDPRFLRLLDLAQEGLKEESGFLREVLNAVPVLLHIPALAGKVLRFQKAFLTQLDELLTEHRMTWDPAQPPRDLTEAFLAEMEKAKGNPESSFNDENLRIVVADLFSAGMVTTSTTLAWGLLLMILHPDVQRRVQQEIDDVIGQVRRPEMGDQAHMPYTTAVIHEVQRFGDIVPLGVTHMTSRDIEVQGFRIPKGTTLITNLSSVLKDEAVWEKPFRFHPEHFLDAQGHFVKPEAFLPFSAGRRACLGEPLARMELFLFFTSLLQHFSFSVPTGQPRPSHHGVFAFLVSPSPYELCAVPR
Chain of Luciferin 4-monooxygenase (P08659 whole entry): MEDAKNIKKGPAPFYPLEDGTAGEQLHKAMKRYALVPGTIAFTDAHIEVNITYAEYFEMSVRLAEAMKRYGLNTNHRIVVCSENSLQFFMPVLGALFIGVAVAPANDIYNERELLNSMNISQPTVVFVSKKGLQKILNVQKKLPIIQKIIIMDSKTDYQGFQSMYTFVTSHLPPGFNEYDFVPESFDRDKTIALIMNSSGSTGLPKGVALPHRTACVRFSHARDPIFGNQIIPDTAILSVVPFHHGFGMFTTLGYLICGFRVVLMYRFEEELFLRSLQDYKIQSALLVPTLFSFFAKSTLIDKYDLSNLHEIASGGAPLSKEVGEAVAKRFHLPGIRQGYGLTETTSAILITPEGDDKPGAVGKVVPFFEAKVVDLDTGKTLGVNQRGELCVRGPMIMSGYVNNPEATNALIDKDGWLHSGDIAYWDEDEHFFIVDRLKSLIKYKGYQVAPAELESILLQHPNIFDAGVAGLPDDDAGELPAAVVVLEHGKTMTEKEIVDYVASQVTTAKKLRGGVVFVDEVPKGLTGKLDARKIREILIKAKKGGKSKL
Chain of Cytochrome P450 3A4 (P08684 whole entry): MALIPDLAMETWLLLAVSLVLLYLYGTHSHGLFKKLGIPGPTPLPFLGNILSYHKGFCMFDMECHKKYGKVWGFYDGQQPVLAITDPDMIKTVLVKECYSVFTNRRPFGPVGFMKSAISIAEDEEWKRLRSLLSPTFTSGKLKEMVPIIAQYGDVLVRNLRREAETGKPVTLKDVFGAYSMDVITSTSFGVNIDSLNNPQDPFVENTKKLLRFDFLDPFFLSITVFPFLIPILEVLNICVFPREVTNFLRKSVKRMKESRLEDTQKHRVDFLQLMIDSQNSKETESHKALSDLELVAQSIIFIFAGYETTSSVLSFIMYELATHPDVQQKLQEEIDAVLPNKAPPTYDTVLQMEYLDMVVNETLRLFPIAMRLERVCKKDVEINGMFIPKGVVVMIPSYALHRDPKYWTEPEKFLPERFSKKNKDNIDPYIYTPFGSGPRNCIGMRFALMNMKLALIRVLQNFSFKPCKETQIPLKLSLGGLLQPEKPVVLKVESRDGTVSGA

As to `CCN(C(=O)COC(=O)c1c2c(nc3ccccc13)/C(=C/c1ccccc1)CC(C)C2)C1CCS(=O)(=O)C1` (stereo not given), in [1], the half-maximal effective concentration (EC50) (as a rule, the concentration that produces a half-maximal response) was 14.3 µM (active).
For `CCCc1noc2c1C(c1ccoc1)C(C#N)=C(N)N2` (stereo not given), the half-maximal effective concentration (EC50) is 1.06 µM (active) in [2], > 112 µM (not active) in [3] and > 112 µM (not active) in data set [5]. Moreover, in data set [4], the AC50 (as a rule, the concentration at which the activity in the assay is half-maximal) was 157 µM (active).
In the case of `NC(=O)c1c(N)sc2c1CCC2`, the IC50 – broadly, the concentration that gives 50% inhibition – in [6] is > 50 µM (inactive).
With `CCOc1ccccc1NC(=O)C1Cc2ccccc2CN1S(C)(=O)=O` (stereo not given), the results for the AC50 in data set [7] and in data set [8] were 39.8 µM (inconclusive) and “inconclusive”, respectively.
For the molecule `Cc1ccc(C(=O)NCCNc2ccc(Cl)cc2[N+](=O)[O-])o1`, the IC50 in data set [6] is > 50 µM (inactive). Besides, the AC50 in data set [9] is 20 µM (inconclusive).
Regarding `O=C(CF)NC(NC(S)=Nc1ccccc1O)C(Cl)(Cl)Cl` (stereo not given), in data set [1], the EC50 was > 260 µM (inactive).
Same read-out and setting: then `O=C(CSC1=NCCN1)Nc1cccc(C(F)(F)F)c1`, with > 260 µM (inactive).
`Cc1csc(NC(=O)C(CC(C)C)NS(=O)(=O)c2ccc3c(c2)oc(=O)n3C)n1` (stereo not given): in data set [6], the IC50 was > 50 µM (inactive).
With `COc1ccccc1NC(=O)c1ccc(-n2cccn2)nc1`, the results for the AC50 in data set [10] and in data set [8] were 25.1 µM (inconclusive) and “inconclusive”, respectively.
Regarding `O=C(CS(=O)(=O)c1cn(Cc2ccc(Cl)cc2)c2ccccc12)N1CCOCC1`, the IC50 in data set [6] was > 50 µM (inactive).
Same read-out and setting: then `COc1ccc2c(c1)CCc1sc(NC(=O)c3ccc(C)cc3)nc1-2`, with > 50 µM (inactive).
`CSc1nc(S(=O)(=O)c2ccc(C)cc2)c(Cl)s1`: the EC50 in [1] is > 260 µM (inactive).
Regarding `Nc1ccccc1Oc1ncc(C(F)(F)F)cc1Cl`, the AC50 entry in data set [8] is recorded as “inconclusive”.
Turning to `Cc1ccc2c(c1)N(CCC(=O)NCC1CCCO1)C(=O)CO2` (stereo not given), the concentration at half-maximal activity (AC50) was 25.1 µM (inconclusive) in [11] and “inconclusive” in data set [8].
Consider `CN(C)c1ccc(-c2nc(N(C)C)c3ccccc3n2)cc1`, for which the AC50 was 39.8 µM (inconclusive) in [10] and “inconclusive” in data set [8].
As for `COCCNc1cc(-c2ccccc2CN(C)C)ncn1`, the results for the AC50 in data set [9] and in data set [8] were 31.6 µM (inconclusive) and “inconclusive”, respectively.
Take `CCOC(=O)CC(NC(=O)C1c2ccccc2Oc2ccccc21)c1ccccc1Cl` (stereo not given): the EC50 in data set [1] is > 260 µM (inactive).
For the molecule `COc1cc2c(cc1OC)C(=O)N1[C@H]3c4ccccc4OC[C@@H]3[C@H](c3ccccc3)[C@]1(C)C(=O)N2`, the half-maximal activity concentration (AC50) in [12] is 9.07 µM (active).
`Cc1nc(-c2ccc(Cl)cc2)sc1C(=O)CBr`: in data set [1], the EC50 is 70.2 µM (active).
Same read-out and setting: then `Cc1cc(C)c2cc(C(=O)N(C)C3CCN(C)CC3)[nH]c2c1`, with > 260 µM (inactive); and `Cn1nnnc1SCCNC/C=C/c1ccccc1`, with > 260 µM (inactive).
Consider `Cc1cc(C(=O)CC#N)c(C)n1CC(F)(F)F`, for which the AC50 was 22.4 µM (inconclusive) in data set [10] and “inconclusive” in [8].
As for `Cc1nc(O)nc(O)c1/C=N/NC(=O)[C@@H](N)CC(C)C`, the IC50 in [6] is > 50 µM (inactive).
As for `C=CCOc1ccccc1OC[C@H](O)CNC(C)C` [OXPRENOLOL], the concentration at half-maximal activity (AC50) is 7.94 µM (inconclusive) in data set [9] and “inconclusive” in [8].
